In paper PMC9090415, “Discovery of small molecule inhibitors of Plasmodium falciparum apicoplast DNA polymerase” (Journal of Enzyme Inhibition and Medicinal Chemistry, 2022):

Molecular target: T1, bacteriophage T4 DNA polymerase (Enterobacteria phage T4, UniProt P04415)
T1 construct: made in house
T1 sequence (P04415 1-898): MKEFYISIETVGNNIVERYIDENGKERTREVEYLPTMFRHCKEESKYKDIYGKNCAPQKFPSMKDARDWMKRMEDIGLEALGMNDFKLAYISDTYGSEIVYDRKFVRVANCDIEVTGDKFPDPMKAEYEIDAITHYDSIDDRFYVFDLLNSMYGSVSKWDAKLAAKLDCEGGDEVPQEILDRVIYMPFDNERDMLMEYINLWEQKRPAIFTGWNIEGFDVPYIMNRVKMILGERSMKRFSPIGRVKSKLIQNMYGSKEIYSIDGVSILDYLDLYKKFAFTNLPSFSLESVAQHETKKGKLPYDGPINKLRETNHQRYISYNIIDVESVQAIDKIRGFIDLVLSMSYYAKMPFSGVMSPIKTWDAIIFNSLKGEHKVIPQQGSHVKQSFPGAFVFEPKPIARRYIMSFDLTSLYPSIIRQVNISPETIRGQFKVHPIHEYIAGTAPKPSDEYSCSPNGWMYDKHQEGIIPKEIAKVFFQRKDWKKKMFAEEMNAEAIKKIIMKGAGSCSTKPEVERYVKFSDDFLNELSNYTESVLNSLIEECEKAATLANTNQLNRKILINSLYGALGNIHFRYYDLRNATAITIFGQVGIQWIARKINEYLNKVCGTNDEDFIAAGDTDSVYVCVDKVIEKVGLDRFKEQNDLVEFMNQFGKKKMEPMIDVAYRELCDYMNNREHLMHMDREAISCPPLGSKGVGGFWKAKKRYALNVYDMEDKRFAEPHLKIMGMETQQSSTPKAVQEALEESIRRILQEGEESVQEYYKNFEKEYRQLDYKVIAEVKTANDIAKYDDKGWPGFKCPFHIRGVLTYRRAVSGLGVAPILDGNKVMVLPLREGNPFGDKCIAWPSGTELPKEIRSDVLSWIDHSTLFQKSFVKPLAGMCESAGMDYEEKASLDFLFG
Assay: Counter-screen against bacteriophage T4 DNA polymerase
Format: biochemical
Settings: for % inhibition T4 10' 2.5 / % inhibition T4 10' 5 / % inhibition T4 10' 10 / % inhibition T4 10' 20 / % inhibition T4 10' 40 / % inhibition T4 10' 80: read at 10'; for % inhibition T4 70' 2.5 / % inhibition T4 70' 5 / % inhibition T4 70' 10 / % inhibition T4 70' 20 / % inhibition T4 70' 40 / % inhibition T4 70' 80: read at 70'; for % inhibition T4 130' 2.5 / % inhibition T4 130' 5 / % inhibition T4 130' 10 / % inhibition T4 130' 20 / % inhibition T4 130' 40 / % inhibition T4 130' 80: read at 130'; for % inhibition T4 40' 2.5 / % inhibition T4 40' 5 / % inhibition T4 40' 10 / % inhibition T4 40' 20 / % inhibition T4 40' 40 / % inhibition T4 40' 80: read at 40'; for % inhibition T4 90' 2.5 / % inhibition T4 90' 5 / % inhibition T4 90' 10 / % inhibition T4 90' 20 / % inhibition T4 90' 40 / % inhibition T4 90' 80: read at 90'; for % inhibition T4 180' 2.5 / % inhibition T4 180' 5 / % inhibition T4 180' 10 / % inhibition T4 180' 20 / % inhibition T4 180' 40 / % inhibition T4 180' 80: read at 180'
Summary of the method: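 IC50 values come from dose-response testing of each compound against T4 DNA polymerase. This B-family polymerase was purified in-house and used as the counter-screen.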

## Cc1ccsc1Cn1c(C)ccc1C [Molecule 70, Cc1ccsc1Cn1c(C)ccc1C]
DRC-1, concentration 2.5
  % inhibition T4 10' 2.5: -4.493%
  % inhibition T4 70' 2.5: -3.335%
  % inhibition T4 130' 2.5: -4.899%
DRC-1, concentration 5
  % inhibition T4 10' 5: -2.675%
  % inhibition T4 70' 5: -3.037%
  % inhibition T4 130' 5: -4.557%
DRC-1, concentration 10
  % inhibition T4 10' 10: 9.004%
  % inhibition T4 70' 10: 6.944%
  % inhibition T4 130' 10: 3.714%
DRC-1, concentration 20
  % inhibition T4 10' 20: 13.0915%
  % inhibition T4 70' 20: 8.488%
  % inhibition T4 130' 20: 4.205%
DRC-1, concentration 40
  % inhibition T4 10' 40: 20.7391%
  % inhibition T4 70' 40: 14.2763%
  % inhibition T4 130' 40: 10.2962%
DRC-1, concentration 80
  % inhibition T4 10' 80: -6.46%
  % inhibition T4 70' 80: -12.9684%
  % inhibition T4 130' 80: -25.7177%
DRC-2, concentration 2.5
  % inhibition T4 10' 2.5: -7%
  % inhibition T4 40' 2.5: -7%
  % inhibition T4 90' 2.5: -5%
  % inhibition T4 180' 2.5: -7%
DRC-2, concentration 5
  % inhibition T4 10' 5: -1.66%
  % inhibition T4 40' 5: -2%
  % inhibition T4 90' 5: -2.51%
  % inhibition T4 180' 5: -9%
DRC-2, concentration 10
  % inhibition T4 10' 10: 10%
  % inhibition T4 40' 10: 10%
  % inhibition T4 90' 10: 8%
  % inhibition T4 180' 10: 1.9%
DRC-2, concentration 20
  % inhibition T4 10' 20: 11%
  % inhibition T4 40' 20: 11%
  % inhibition T4 90' 20: 9%
  % inhibition T4 180' 20: 4%
DRC-2, concentration 40
  % inhibition T4 10' 40: 14%
  % inhibition T4 40' 40: 14%
  % inhibition T4 90' 40: 12%
  % inhibition T4 180' 40: 8%
DRC-2, concentration 80
  % inhibition T4 10' 80: 7.37%
  % inhibition T4 40' 80: 7%
  % inhibition T4 90' 80: 5%
  % inhibition T4 180' 80: 1.21%

## CC(=O)Nc1cc(C(=O)c2cccs2)nn(-c2ccc(Cl)cc2)c1=O [KU0267905]
DRC-1, concentration 2.5
  % inhibition T4 10' 2.5: -2.1822%
  % inhibition T4 70' 2.5: -0.6527%
  % inhibition T4 130' 2.5: -1.3658%
DRC-1, concentration 5
  % inhibition T4 10' 5: -1.511%
  % inhibition T4 70' 5: -1.806%
  % inhibition T4 130' 5: -4.349%
DRC-1, concentration 10
  % inhibition T4 10' 10: 8.968%
  % inhibition T4 70' 10: 6.193%
  % inhibition T4 130' 10: 2.501%
DRC-1, concentration 20
  % inhibition T4 10' 20: 21.6077%
  % inhibition T4 70' 20: 12.7493%
  % inhibition T4 130' 20: 8.205%
DRC-1, concentration 40
  % inhibition T4 10' 40: 20.7445%
  % inhibition T4 70' 40: 13.4043%
  % inhibition T4 130' 40: 8.984%
DRC-1, concentration 80
  % inhibition T4 10' 80: 21.8297%
  % inhibition T4 70' 80: 12.69%
  % inhibition T4 130' 80: 8.594%
DRC-2, concentration 2.5
  % inhibition T4 10' 2.5: 8%
  % inhibition T4 40' 2.5: 7%
  % inhibition T4 90' 2.5: 5%
  % inhibition T4 180' 2.5: 0.767%
DRC-2, concentration 5
  % inhibition T4 10' 5: 8.43%
  % inhibition T4 40' 5: 7.5%
  % inhibition T4 90' 5: 5%
  % inhibition T4 180' 5: 0.673%
DRC-2, concentration 10
  % inhibition T4 10' 10: 8%
  % inhibition T4 40' 10: 6.35%
  % inhibition T4 90' 10: 4%
  % inhibition T4 180' 10: 0.174%
DRC-2, concentration 20
  % inhibition T4 10' 20: 1.18%
  % inhibition T4 40' 20: 0.171%
  % inhibition T4 90' 20: -2%
  % inhibition T4 180' 20: -8%
DRC-2, concentration 40
  % inhibition T4 10' 40: 7%
  % inhibition T4 40' 40: 4%
  % inhibition T4 90' 40: 2.26%
  % inhibition T4 180' 40: -2.82%
DRC-2, concentration 80
  % inhibition T4 10' 80: 2.64%
  % inhibition T4 40' 80: 0.303%
  % inhibition T4 90' 80: -0.743%
  % inhibition T4 180' 80: -3.56%

## Cc1ccc(C(=O)/C=C/C=C/C=C/N(C)C)o1 [Molecule 96, CN(/C=C/C=C/C=C/C(=O)c1ccc(o1)C)C]
DRC-2, concentration 10
  % inhibition T4 10': 11%
DRC-2, concentration 5
  % inhibition T4 90': 11%

## O=C(Nc1ccc2c(c1)Cc1cc(NC(=O)c3ccco3)ccc1-2)c1ccco1 [KU0038977]
DRC-2, concentration 80
  % inhibition T4 10': 20%
  % inhibition T4 90': 35%
DRC-2, concentration 20
  % inhibition T4 40': 25%
  % inhibition T4 90': 25%
DRC-2, concentration 40
  % inhibition T4 40': 35%
  % inhibition T4 90': 35%
DRC-2, 180', concentration 20
  % inhibition T4 180': 20%

## CCCCC(=O)N1CCc2c(nc3cc(-c4ccccc4Cl)[nH]n3c2=O)C1 [Molecule 37, CCCCC(=O)N1CCc2c(C1)nc1n(c2=O)[nH]c(c1)c1ccccc1Cl]
DRC-2, concentration 2.5
  % inhibition T4 10': 6%
  % inhibition T4 40': 6%
  % inhibition T4 90': 5%
DRC-2, concentration 5
  % inhibition T4 10': -3%
  % inhibition T4 40': -3%
DRC-2, concentration 10
  % inhibition T4 10': 3.42%
  % inhibition T4 40': 3.42%
DRC-2, concentration 20
  % inhibition T4 10': 0.821%
  % inhibition T4 40': 0.821%
DRC-2, concentration 40
  % inhibition T4 10': 4.74%
  % inhibition T4 40': 4.74%
  % inhibition T4 90': 5%
DRC-2, concentration 80
  % inhibition T4 10': 1.57%
  % inhibition T4 40': 1.57%

## CC(C)CC(C(=O)O)N1C(=O)C2C3C=CC(C2C1=O)C1C(=O)N(C(CC(C)C)C(=O)O)C(=O)C31 (centres unmarked) [KU0193449]
DRC-1, concentration 2.5
  % inhibition T4 10' 2.5: 3.278%
  % inhibition T4 70' 2.5: 0.3673%
  % inhibition T4 130' 2.5: -2.364%
DRC-1, concentration 5
  % inhibition T4 10' 5: 4.491%
  % inhibition T4 70' 5: 1.3204%
  % inhibition T4 130' 5: -1.909%
DRC-1, concentration 10
  % inhibition T4 10' 10: 8.777%
  % inhibition T4 70' 10: 2.619%
  % inhibition T4 130' 10: -0.6043%
DRC-1, concentration 20
  % inhibition T4 10' 20: 7.866%
  % inhibition T4 70' 20: 3.878%
  % inhibition T4 130' 20: 0.2689%
DRC-1, concentration 40
  % inhibition T4 10' 40: 21.6809%
  % inhibition T4 70' 40: 15.5336%
  % inhibition T4 130' 40: 11.2312%
DRC-1, concentration 80
  % inhibition T4 10' 80: 52.1619%
  % inhibition T4 70' 80: 40.8979%
  % inhibition T4 130' 80: 34.0378%
DRC-2, concentration 2.5
  % inhibition T4 10' 2.5: 4.54%
  % inhibition T4 40' 2.5: 4.54%
  % inhibition T4 90' 2.5: 4%
  % inhibition T4 180' 2.5: -1%
DRC-2, concentration 5
  % inhibition T4 10' 5: 4.24%
  % inhibition T4 40' 5: 4.24%
  % inhibition T4 90' 5: 3%
  % inhibition T4 180' 5: -1.88%
DRC-2, concentration 10
  % inhibition T4 10' 10: 10%
  % inhibition T4 40' 10: 10%
  % inhibition T4 90' 10: 7%
  % inhibition T4 180' 10: 0.586%
DRC-2, concentration 20
  % inhibition T4 10' 20: 15%
  % inhibition T4 40' 20: 15%
  % inhibition T4 90' 20: 11%
  % inhibition T4 180' 20: 2.64%
DRC-2, concentration 40
  % inhibition T4 10' 40: 28%
  % inhibition T4 40' 40: 28%
  % inhibition T4 90' 40: 24%
  % inhibition T4 180' 40: 15%
DRC-2, concentration 80
  % inhibition T4 10' 80: 55%
  % inhibition T4 40' 80: 55%
  % inhibition T4 90' 80: 52%
  % inhibition T4 180' 80: 45%
